Tests used:
[1] = In vivo effects of ritonavir on the oral pharmacokinetics of Compound nr. 47 in rat; conditions: male and female Sprague-Dawley rats, single oral 10 mg/kg Compound nr. 47, boosting with 10 mg/kg ritonavir about 30 minutes before, plasma
Method: Oral pharmacokinetics of Compound nr. 47 in male and female Sprague-Dawley rats after a single dose at 10 mg/kg, using a formulation in 50% PEG400/water and the influence of “boosting” with 10 mg/kg ritonavir were investigated.
Four male and four female Sprague-Dawley (SD)-rats (approx. body weight 200-250 g) were randomly divided into 2 groups of 2 males and females each (boosted and non-boosted) based on body weight. […] The animals were fasted shortly before the trial. Drinking water remained available ad libitum.
Rats from the non-boosted group received a single oral 10 mg/kg dose of Compound nr. 47, formulated as a 3 mg/ml 50% PEG400/water at pH 8. Rats from the boosted group received a single oral dose of ritonavir, about 30 minutes before single oral dosing with 10 mg/kg of Compound nr. 47. The drug formulations were administered by oral gavage.
From each rat, a 0.5 ml blood sample was collected at 0.5 h, 1 h, 2 h, 4 h and 8 h after dosing. Plasma concentrations were determined using HPLC-MS. Results are shown in the table 2 below, expressed as fold change in pharmacokinetic parameter of the boosted group as compared to the non-boosted group.

[2] = system: HCV type 1b replicon in Huh-7 luc/neo (Huh-Luc) cells; test: Replicon assay: inhibition of HCV RNA replication in Huh-Luc cells (luciferase); type: cell-based; conditions: Hepatitis C virus, Huh-7, 72 h, luciferase activity, incubation of three days
Method: The in vitro antiviral activity against HCV of the compounds of formula (I) was tested in a cellular HCV replicon system based on Lohmann et al. (1999) Science 285:110-113, with the further modifications described by Krieger et al. (2001) Journal of Virology 75: 4614-4624, which is further exemplified in the examples section. This model, while not a complete infection model for HCV, is widely accepted as the most robust and efficient model of autonomous HCV RNA replication currently available. […] It will be appreciated that it is important to distinguish between compounds that specifically interfere with HCV functions from those that exert cytotoxic or cytostatic effects in the HCV replicon model, and as a consequence cause a decrease in HCV RNA or linked reporter enzyme concentration. Assays are known in the field for the evaluation of cellular cytotoxicity based for example on the activity of mitochondrial enzymes using fluorogenic redox dyes such as resazurin. Furthermore, cellular counter screens exist for the evaluation of non-selective inhibition of linked reporter gene activity, such as firefly luciferase. Appropriate cell types can be equipped by stable transfection with a luciferase reporter gene whose expression is dependent on a constitutively active gene promoter, and such cells can be used as a counter-screen to eliminate non-selective inhibitors.
The compounds of formula (I) were examined for activity in the inhibition of HCV RNA replication in a cellular assay. […] The cellular assay was based on a bicistronic expression construct, as described by Lohmann et al. (1999) Science vol. 285 pp. 110-113 with modifications described by Krieger et al. (2001) Journal of Virology 75: 4614-4624, in a multi-target screening strategy. In essence, the method was as follows.
The assay utilized the stably transfected cell line Huh-7 luc/neo (hereafter referred to as Huh-Luc). This cell line harbors an RNA encoding a bicistronic expression construct comprising the wild type NS3-NS5B regions of HCV type 1b translated from an Internal Ribosome Entry Site (IRES) from encephalomyocarditis virus (EMCV), preceded by a reporter portion (FfL-luciferase), and a selectable marker portion (neo^R, neomycine phosphotransferase). The construct is bordered by 5′ and 3′ NTRs (non-translated regions) from HCV type 1b. Continued culture of the replicon cells in the presence of G418 (neo^R) is dependent on the replication of the HCV RNA. The stably transfected replicon cells that express HCV RNA, which replicates autonomously and to high levels, encoding inter alia luciferase, are used for screening the antiviral compounds.
The replicon cells were plated in 384 well plates in the presence of the test and control compounds which were added in various concentrations. Following an incubation of three days, HCV replication was measured by assaying luciferase activity (using standard luciferase assay substrates and reagents and a Perkin Elmer ViewLux™ ultraHTS microplate imager). Replicon cells in the control cultures have high luciferase expression in the absence of any inhibitor. The inhibitory activity of the compound on luciferase activity was monitored on the Huh-Luc cells, enabling a dose-response curve for each test compound.

HCV NS3/4A protease = HCV NS3/4A protease (Hepatitis C virus genotype 1a (isolate H77) (HCV), UniProt P27958); test: Inhibition assay (enzymatic assay) of full-length NS3 protease with NS4A cofactor; type: biochemical
Method: [Landro, 1997 #Biochem 36 9340-9348]. […] The solutions were stored at −20° C. between measurements.
[Liu, 1999 Analytical Biochemistry 267 331-335].

Chain of HCV NS3/4A protease (P27958 1027-1657): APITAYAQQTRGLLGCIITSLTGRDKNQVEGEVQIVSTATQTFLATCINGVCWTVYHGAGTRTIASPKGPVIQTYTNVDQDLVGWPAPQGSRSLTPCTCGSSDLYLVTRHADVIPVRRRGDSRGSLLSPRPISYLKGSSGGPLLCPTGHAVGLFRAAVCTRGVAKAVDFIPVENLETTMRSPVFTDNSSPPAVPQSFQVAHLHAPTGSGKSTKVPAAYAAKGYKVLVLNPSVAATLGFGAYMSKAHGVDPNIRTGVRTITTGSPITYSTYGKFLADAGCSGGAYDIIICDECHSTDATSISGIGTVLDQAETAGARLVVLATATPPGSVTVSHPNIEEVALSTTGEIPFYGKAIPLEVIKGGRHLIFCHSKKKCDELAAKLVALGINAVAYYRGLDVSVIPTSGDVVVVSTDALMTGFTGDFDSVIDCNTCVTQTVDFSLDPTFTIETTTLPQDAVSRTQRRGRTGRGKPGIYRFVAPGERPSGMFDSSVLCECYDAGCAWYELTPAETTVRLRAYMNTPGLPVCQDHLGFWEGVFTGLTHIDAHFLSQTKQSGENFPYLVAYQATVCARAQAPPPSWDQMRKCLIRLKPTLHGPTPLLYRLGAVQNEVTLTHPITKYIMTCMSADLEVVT

In the case of `COc1ccc2c(O[C@@H]3C[C@H]4C(=O)N[C@]5(C(=O)NS(=O)(=O)C6CC6)C[C@H]5/C=C\CCCCN(C)C(=O)[C@@H]4C3)cc(-c3nc(C(C)C)cs3)nc2c1C` [Compound 47, N-[17-[2-(4-isopropylthiazole-2-yl)-7-methoxy-8-methylquinolin-4-yloxy]-13-methyl-2,14-dioxo-3,13-diazatricyclo[13.3.0.0^4,6]octadec-7-ene-4-carbonyl](cyclopropyl)sulfonamide], the “Cmax, fold change of the boosted group as compared to the non-boosted group” value [1] is reported as 2.2 fold change, the EC50 [2] is reported as 0.00618 µM and the Ki (HCV NS3/4A protease) is reported as 0.5 nM.

Source: patent publication US8741926B2, “Macrocyclic inhibitors of hepatitis C virus” (Tibotec Pharmaceuticals Ltd., priority 2005, dated 2014)
